pEC50: −log10 of the molar value.
Tests used:
[1] = Hepatic Stability Assay (in vitro half-life method); type: in vitro ADME; design: dose or concentration left out as unconfirmed; settings: pooled cryopreserved hepatocytes, 37° C., 1×10^6 cells/mL, 0-6 hours, LC-MS/MS, 39.5 hours is the maximum detectable half life, read-out: t½ (converted)
Method in brief: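 Pooled cryopreserved hepatocytes (1×10^6 cells/mL) incubated with compound at […] test concentration, 37° C.; samples at 0, 1, 3 and 6 h quantified by LC-MS/MS. Half-life from rate of compound disappearance, scaled to predicted hepatic clearance via well-stirred model.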

[2] = test system: HBV AD38 viral particles in HepG2 cell line overexpressing NTCP; test: HBV DNA Quantification Assay; type: cell-based; settings: Hepatitis B virus, HepG2, 120 h, HBV-infected HepG2-NTCP cells, 5 days incubation, HBV DNA in culture supernatant (QuantiGene 2.0); geometric mean of a minimum of four determinations
Method in brief: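 NTCP-overexpressing HepG2 cells infected with AD38 virus at 4000 genome equivalents/cell for 4 days, then reseeded with serially diluted compound in DMEM, 2% FBS, 1% DMSO for 5 days.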

## Cc1c(C(=O)C(=O)NC2(C(=O)NC3(C)CS(=O)(=O)C3)CC(F)(F)C2)c2n(c1C(=O)Nc1ccc(F)c(Cl)c1)CCC2 [Example 9, N-(3-chloro-4-fluorophenyl)-7-(2-((3,3-difluoro-1-((3-methyl-1,1-dioxidothietan-3-yl)carbamoyl)cyclobutyl)amino)-2-oxoacetyl)-6-methyl-2,3-dihydro-1H-pyrrolizine-5-carboxamide]
[1]
  half-life: 11.7 h
[2]
  pEC50: 6.99

## Cc1c(C(=O)C(=O)N[C@](C)(CO)C(F)(F)F)c2n(c1C(=O)Nc1ccc(F)c(Cl)c1)CCC2 [Example 132, (R)—N-(3-Chloro-4-fluorophenyl)-6-methyl-7-(2-oxo-2-((1,1,1-trifluoro-3-hydroxy-2-methylpropan-2-yl)amino)acetyl)-2,3-dihydro-1H-pyrrolizine-5-carboxamide]
[1]
  half-life: 7.7 h
[2]
  pEC50: 8.08

## Cc1c(C(=O)C(=O)NC2(c3c[nH]nn3)CC(F)(F)C2)c2n(c1C(=O)Nc1cc(F)c(F)c(F)c1)CCC2 [Example 53, 7-(2-((3,3-difluoro-1-(1H-1,2,3-triazol-4-yl)cyclobutyl)amino)-2-oxoacetyl)-6-methyl-N-(3,4,5-trifluorophenyl)-2,3-dihydro-1H-pyrrolizine-5-carboxamide]
[1]
  half-life: 10.8 h
[2]
  pEC50: 8.49

## Cc1c(C(=O)C(=O)NC2(c3c[nH]nn3)CC2)c2n(c1C(=O)Nc1cccc(Cl)c1F)CCC2 [Example 107, 7-(2-((1-(1H-1,2,3-triazol-4-yl)cyclopropyl)amino)-2-oxoacetyl)-N-(3-chloro-2-fluorophenyl)-6-methyl-2,3-dihydro-1H-pyrrolizine-5-carboxamide]
[1]
  half-life: 9.8 h
[2]
  pEC50: 6.84

## Cc1c(C(=O)C(=O)NC2(c3c[nH]nn3)CC2)c2n(c1C(=O)Nc1ccc(F)c(Cl)c1)[C@@H]1C[C@@H]1C2 [Example 52, (1aR,6aR)-5-(2-((1-(1H-1,2,3-triazol-4-yl)cyclopropyl)amino)-2-oxoacetyl)-N-(3-chloro-4-fluorophenyl)-4-methyl-1,1a,6,6a-tetrahydrocyclopropa[b]pyrrolizine-3-carboxamide]
[1]
  half-life: 4.2 h
[2]
  pEC50: 8.11

## Cc1c(C(=O)C(=O)NC2(c3c[nH]nn3)CC2)c2n(c1C(=O)Nc1cc(Cl)cc(Cl)c1)CCC2 [Example 102, 7-(2-((1-(1H-1,2,3-triazol-4-yl)cyclopropyl)amino)-2-oxoacetyl)-N-(3,5-dichlorophenyl)-6-methyl-2,3-dihydro-1H-pyrrolizine-5-carboxamide]
[1]
  half-life: 4.8 h
[2]
  pEC50: 6.95

## Cc1c(C(=O)C(=O)NC2(c3nncs3)CC2)c2n(c1C(=O)Nc1cc(F)c(F)c(F)c1)[C@@H]1C[C@@H]1C2 [Example 57, (1aR,6aR)-5-(2-((1-(1,3,4-thiadiazol-2-yl)cyclopropyl)amino)-2-oxoacetyl)-4-methyl-N-(3,4,5-trifluorophenyl)-1,1a,6,6a-tetrahydrocyclopropa[b]pyrrolizine-3-carboxamide]
[1]
  half-life: 8 h
[2]
  pEC50: 8.00

## Cc1c(C(=O)C(=O)NC2(c3nncs3)CC2)c2n(c1C(=O)Nc1ccnc(C(F)F)c1F)[C@@H]1C[C@@H]1C2 [Example 68, (1aR,6aR)-5-(2-((1-(1,3,4-thiadiazol-2-yl)cyclopropyl)amino)-2-oxoacetyl)-N-(2-(difluoromethyl)-3-fluoropyridin-4-yl)-4-methyl-1,1a,6,6a-tetrahydrocyclopropa[b]pyrrolizine-3-carboxamide]
[1]
  half-life: 5.2 h
[2]
  pEC50: 6.96

## Cc1c(C(=O)C(=O)NC2(c3c[nH]nn3)CC2)c2n(c1C(=O)Nc1cc(F)cc(C#N)c1)CCC2 [Example 126, 7-(2-((1-(1H-1,2,3-triazol-4-yl)cyclopropyl)amino)-2-oxoacetyl)-N-(3-cyano-5-fluorophenyl)-6-methyl-2,3-dihydro-1H-pyrrolizine-5-carboxamide]
[1]
  half-life: 10.7 h
[2]
  pEC50: 6.78

## Cc1c(C(=O)C(=O)NC2(c3c[nH]nn3)CC(F)(F)C2)c2n(c1C(=O)Nc1ccc(F)cc1)CCC2 [Example 32, 7-(2-((3,3-difluoro-1-(1H-1,2,3-triazol-4-yl)cyclobutyl)amino)-2-oxoacetyl)-N-(4-fluorophenyl)-6-methyl-2,3-dihydro-1H-pyrrolizine-5-carboxamide]
[1]
  half-life: 8.8 h
[2]
  pEC50: 8.07

## C#CC1(NC(=O)C(=O)c2c(C)c(C(=O)Nc3cc(F)c(F)c(F)c3)n3c2CCC3)CC1 [Example 92, 7-(2-((1-ethynylcyclopropyl)amino)-2-oxoacetyl)-6-methyl-N-(3,4,5-trifluorophenyl)-2,3-dihydro-1H-pyrrolizine-5-carboxamide]
[1]
  half-life: 2.2 h
[2]
  pEC50: 8.19

## Cc1c(C(=O)C(=O)NC2(c3c[nH]nn3)CC2)c2n(c1C(=O)Nc1ccc(F)c(Cl)c1)C[C@H](F)C2 [Example 45, (R)-7-(2-((1-(1H-1,2,3-triazol-4-yl)cyclopropyl)amino)-2-oxoacetyl)-N-(3-chloro-4-fluorophenyl)-2-fluoro-6-methyl-2,3-dihydro-1H-pyrrolizine-5-carboxamide]
[1]
  half-life: 13.3 h
[2]
  pEC50: 8.04

## Cc1c(C(=O)C(=O)NC2(c3cnn[nH]3)CC(F)(F)C2)c2n(c1C(=O)Nc1ccc(F)cc1)[C@@H]1C[C@@H]1C2 [Example 100, (1aR,6aR)-5-(2-((3,3-difluoro-1-(1H-1,2,3-triazol-5-yl)cyclobutyl)amino)-2-oxoacetyl)-N-(4-fluorophenyl)-4-methyl-1,1a,6,6a-tetrahydrocyclopropa[b]pyrrolizine-3-carboxamide]
[1]
  half-life: 3.1 h
[2]
  pEC50: 8.43

## Cc1c(C(=O)C(=O)NC2(c3c[nH]nn3)CC(F)(F)C2)c2n(c1C(=O)Nc1ccc(F)c(Cl)c1)CCC2 [Example 29, N-(3-chloro-4-fluorophenyl)-7-(2-((3,3-difluoro-1-(1H-1,2,3-triazol-4-yl)cyclobutyl)amino)-2-oxoacetyl)-6-methyl-2,3-dihydro-1H-pyrrolizine-5-carboxamide]
[1]
  half-life: 16.1 h
[2]
  pEC50: 8.51

## CNC(=O)C1(NC(=O)C(=O)c2c(C)c(C(=O)Nc3ccnc(C(F)F)c3F)n3c2CCC3)CC(F)(F)C1 [Example 147, 7-(2-((3,3-difluoro-1-(methylcarbamoyl)cyclobutyl)amino)-2-oxoacetyl)-N-(2-(difluoromethyl)-3-fluoropyridin-4-yl)-6-methyl-2,3-dihydro-1H-pyrrolizine-5-carboxamide]
[1]
  half-life: 24.8 h
[2]
  pEC50: 6.99

## Cc1c(C(=O)C(=O)NC2(C(=O)N3CC4(C3)CS(=O)(=O)C4)CC(F)(F)C2)c2n(c1C(=O)Nc1ccc(F)c(Cl)c1)CCC2 [Example 13, N-(3-chloro-4-fluorophenyl)-7-(2-((1-(2,2-dioxido-2-thia-6-azaspiro[3.3]heptane-6-carbonyl)-3,3-difluorocyclobutyl)amino)-2-oxoacetyl)-6-methyl-2,3-dihydro-1H-pyrrolizine-5-carboxamide]
[1]
  half-life: 16.4 h
[2]
  pEC50: 6.60

## CNC(=O)[C@](C)(NC(=O)C(=O)c1c(C)c(C(=O)Nc2ccc(F)c(F)c2)n2c1CCC2)C(F)(F)F [Example 138, (S)—N-(3,4-difluorophenyl)-6-methyl-7-(2-oxo-2-((1,1,1-trifluoro-2-methyl-3-(methylamino)-3-oxopropan-2-yl)amino)acetyl)-2,3-dihydro-1H-pyrrolizine-5-carboxamide]
[1]
  half-life: 17.9 h
[2]
  pEC50: 6.80

## Cc1c(C(=O)C(=O)NC2(c3c[nH]nn3)COC2)c2n(c1C(=O)Nc1ccc(F)c(F)c1)[C@@H]1C[C@@H]1C2 [Example 87, (1aR,6aR)-5-(2-((3-(1H-1,2,3-triazol-4-yl)oxetan-3-yl)amino)-2-oxoacetyl)-N-(3,4-difluorophenyl)-4-methyl-1,1a,6,6a-tetrahydrocyclopropa[b]pyrrolizine-3-carboxamide]
[1]
  half-life: 6.3 h
[2]
  pEC50: 7.90

## Cc1c(C(=O)C(=O)NC2(c3c[nH]nn3)CC2)c2n(c1C(=O)Nc1ccc(F)c(C(F)F)c1)CCC2 [Example 77, 7-(2-((1-(1H-1,2,3-triazol-4-yl)cyclopropyl)amino)-2-oxoacetyl)-N-(3-(difluoromethyl)-4-fluorophenyl)-6-methyl-2,3-dihydro-1H-pyrrolizine-5-carboxamide]
[1]
  half-life: 22.1 h
[2]
  pEC50: 7.72

## CNC(=O)C1(NC(=O)C(=O)c2c(C)c(C(=O)Nc3ccc(F)c(Cl)c3)n3c2C[C@@H](O)C3)CC(F)(F)C1 [Example 16, (R)—N-(3-chloro-4-fluorophenyl)-7-(2-((3,3-difluoro-1-(methylcarbamoyl)cyclobutyl)amino)-2-oxoacetyl)-2-hydroxy-6-methyl-2,3-dihydro-1H-pyrrolizine-5-carboxamide]
[1]
  half-life: 11.8 h
[2]
  pEC50: 6.34

## CNC(=O)[C@@](C)(NC(=O)C(=O)c1c(C)c(C(=O)Nc2ccc(F)c(F)c2)n2c1CCC2)C(F)(F)F [Example 137, (R)—N-(3,4-difluorophenyl)-6-methyl-7-(2-oxo-2-((1,1,1-trifluoro-2-methyl-3-(methylamino)-3-oxopropan-2-yl)amino)acetyl)-2,3-dihydro-1H-pyrrolizine-5-carboxamide]
[1]
  half-life: 7.4 h
[2]
  pEC50: 6.80

## Cc1c(C(=O)C(=O)NC2(c3c[nH]nn3)CC(F)(F)C2)c2n(c1C(=O)Nc1ccc(F)c(F)c1)CCC2 [Example 31, 7-(2-((3,3-difluoro-1-(1H-1,2,3-triazol-4-yl)cyclobutyl)amino)-2-oxoacetyl)-N-(3,4-difluorophenyl)-6-methyl-2,3-dihydro-1H-pyrrolizine-5-carboxamide]
[1]
  half-life: 8.6 h
[2]
  pEC50: 8.49

From patent US10328053B2 (Gilead Sciences, Inc., priority 2016, dated 2019)
